# Source: patent US20170304336A1, “COMBINATION” (priority 2014, published 2017)
# “And” between values parts separate entries of the source, which are not always exact repeats. Equal values may be shown once.
# Tests used:
# [1] = Mass coefficients of organs (pancreas, liver, kidneys) of rats; format: in vivo, male rats of Wistar line; conditions: M ± m; for weight coefficient, Kidneys / weight coefficient, Liver: in %
# Description: To calculate mass coefficients the pancreas, liver and kidneys of the animals were extracted. The organs were weighed and the mass coefficients were calculated by the following formula:
# Mass coefficient=(organ weight/animal body weight)×100%
# [2] = Stability of statin/glycyrrhizic acid molecular complexes by content of glycyrrhizic acid; format: physicochemical; conditions: interval between testing points 7 months; European Pharmacopoeia 7.0 methodology
# Description: Stability of these complexes was determined on the basis of quantitative content of glycyrrhizic acid (in percentage form). The interval between the testing points was 7 months. The testing methodology was taken from European Pharmacopoeia 7.0. […] This decline is related both to the conditions of synthesis (maximum decline observed for liquid-phase synthesis) and to the properties of the active ingredient itself.
# [3] = system: experimental rat hypercholesterolemia model; experiment: Biochemical blood analysis (drug toxicity parameters) in rat hypercholesterolemia model; format: in vivo, male rats of Wistar line
# Method in brief: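 Serum AST, ALT, creatine phosphokinase, amylase, urea, total/direct/indirect bilirubin, glucose, K+ and Na+ measured by analyzer in tail-vein blood drawn after 14-15 h fast (9.00-11.00). Hypercholesterolemia induced by 90-day cholesterol/cholic acid/overheated-fat diet; daily intragastric dosing on Days 31-90.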
# [4] = system: experimental rat hypercholesterolemia model; experiment: Lipid spectrum of blood in experimental rat hypercholesterolemia model; format: in vivo, male rats of Wistar line
# Method in brief: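 Male Wistar rats fed a cholesterol, cholic acid and overheated-fat diet ad libitum for 90 days. Drugs given intragastrically daily on Days 31-90. Serum total cholesterol, LDL-CHS, HDL-CHS and triglycerides measured in tail-vein blood after 14-15 h fasting.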
# [5] = Dynamics of body weight of rabbits (Schemes A and B); format: in vivo, male rabbits of Californian breed; conditions: for Body weight: Scheme A, M ± SEM
# Description: The animals used in this experiment were involved reproductive male rabbits of Californian breed. 144 rabbits were used. The weight of the animals at the beginning of the trial ranged from 2.5 to 3 kg; the animals were 8 weeks old. Before the study the laboratory animals were contained for 27 and for 37 days in the separate coops for adaptation. During this period, clinical condition of animals was controlled every day by visual inspection. The criteria of the inclusion of animals in the experiment were health and body weight.
# The introduction of drugs under two schemes was used to determine the mechanism of action of the studied drugs and the impact on the different stages of atherosclerosis.
# Cholesterol administered daily in an oil solution at 0.3 g/kg of animal body weight, one time, 4 hours after drug administration. Cholesterol was dissolved in hot sunflower oil and administered to the animals through noninvasive probe into the stomach. The duration of administration amounted cholesterol from 1 to 90 days in subgroup A and 1 to 120 days in subgroup B. 2. After 30 days from the initiation of administration of cholesterol vitamin D3 (cholecalciferol) in a dose of 0.256 ml/kg was added to the diet of animals to enhance aortic lipidosis. Cholecalciferol was administered intragastrically via a probe from 31 till 60 days (Scheme A and B). […] In order to gain atherosclerotic lesions in aorta and atherosclerosis induction time reduction the animals were administered a dose of epinephrineequal to 0.04 mg/kg intravenously since 31 till 60 every five days (Scheme A and B).
# Animal body weight was measured in accordance with standard procedures prior to the study, then—weekly (for calculating the volume of administration of the test compound and the reference drug) and immediately before euthanasia (on days 60 and 120)—to calculate the weight gain.
# The administration was carried out intragastrically in accordance with standard procedures using atraumatic probe according to two treatment regimens every day at the same time.
# [6] = Mass coefficients of liver and pancreas of rabbits; format: in vivo, male rabbits of Californian breed; conditions: for pancreatic mass coefficients relative to the control group: rosuvastatin 40 mg, AGA 100 mg
# [7] = AV + GA 10 + 90 mg, AV 20 mg, GA 90 mg
# [8] = FV + GA 80 + 90 mg, FV 80 mg, GA 90 mg
# [9] = Day 30 of treatment (Day 60 of study), dose 90 mg
# [10] = blood, Day 60 of the treatment (Day 90 of the study), AV + GA 10 + 90 mg, AV 10 mg, GA 90 mg
# [11] = blood, Day 60 of the treatment (Day 90 of the study), FV + GA 80 + 90 mg, FV 80 mg, GA 90 mg
# [12] = Day 60 of treatment (Day 90 of study), dose 90 mg
# [13] = RV + AGA 10 + 108 mg, RV 10 mg, AGA 108 mg
# [14] = Day 30 of treatment (Day 60 of study), dose 10 mg
# [15] = blood, Day 60 of the treatment (Day 90 of the study), RV + AGA 10 + 108 mg, RV 10 mg, AGA 108 mg
# [16] = Day 30 of treatment (Day 60 of study), dose 20 mg
# [17] = Day 60 of treatment (Day 90 of study), dose 10 mg
# [18] = Day 60 of treatment (Day 90 of study), dose 20 mg
compound,measurement,setting,value
"CC1(C)[C@@H](O[C@H]2O[C@H](C(=O)O)[C@@H](O)[C@H](O)[C@H]2O[C@@H]2O[C@H](C(=O)O)[C@@H](O)[C@H](O)[C@H]2O)CC[C@]2(C)[C@H]3C(=O)C=C4[C@@H]5C[C@@](C)(C(=O)O)CC[C@]5(C)CC[C@@]4(C)[C@]3(C)CC[C@@H]12 [GA, (3β,18α)-30-hydroxy-11,30-dioxoolean-12-en-3-yl 2-O-β-D-glucopyranuronosyl-β-D-glucopyranosiduronic acid]","weight coefficient, Pancreas",[1]; [7],0.20 ± 0.01^2
same,"weight coefficient, Kidneys",[1]; [7],0.80 ± 0.01
same,"weight coefficient, Liver",[1]; [7],4.41 ± 0.09
same,"weight coefficient, Pancreas",[1]; [8],0.23 ± 0.01^2
same,"weight coefficient, Kidneys",[1]; [8],0.80 ± 0.03
same,"weight coefficient, Liver",[1]; [8],4.42 ± 0.09
same,stability with regard to time (content of glycyrrhizic acid),[2],unstable
same,ALT,[3]; [9],100 U/l
same,AST,[3]; [9],125 U/l and 132 U/l
same,Amylase,[3]; [9],618 U/l
same,Bilirubin direct,[3]; [9],2.2 mg/dL
same,Bilirubin indirect,[3]; [9],1.4 mg/dL
same,Bilirubin total,[3]; [9],4.5 mg/dL
same,CPK,[3]; [9],320 U/l
same,Glucose,[3]; [9],111 mg/dL
same,Potassium,[3]; [9],2.2 mM
same,Sodium,[3]; [9],135 mmol
same,Urea,[3]; [9],5.7 mmol/L
same,ALT,[3]; [10],103 U/l
same,AST,[3]; [10],115 U/l
same,Amylase,[3]; [10],600 U/l
same,Bilirubin direct,[3]; [10],2.2 mg/dL
same,Bilirubin indirect,[3]; [10],1.8 mg/dL
same,Bilirubin total,[3]; [10],4.3 mg/dL
same,CPK,[3]; [10],233 U/l
same,Glucose,[3]; [10],116 mg/dL
same,Potassium,[3]; [10],3.1 mM
same,Sodium,[3]; [10],123 mmol
same,Urea,[3]; [10],5.0 mmol/L
same,ALT,[3]; [11],103 U/l
same,AST,[3]; [11],121 U/l
same,Amylase,[3]; [11],600 U/l
same,Bilirubin direct,[3]; [11],2.2 mg/dL
same,Bilirubin indirect,[3]; [11],1.8 mg/dL
same,Bilirubin total,[3]; [11],4.3 mg/dL
same,CPK,[3]; [11],233 U/l
same,Glucose,[3]; [11],116 mg/dL
same,Potassium,[3]; [11],3.1 mM
same,Sodium,[3]; [11],123 mmol
same,Urea,[3]; [11],5.0 mmol/L
same,HDL CHS,[4]; [9],0.63 ± 0.04 mmol/L
same,LDL CHS,[4]; [9],4.00 ± 0.3 mmol/L
same,TG,[4]; [9],1.6 ± 0.10 mmol/L
same,Total CHS,[4]; [9],5.2 ± 0.5 mmol/L
same,HDL CHS,[4]; [12],0.73 ± 0.04 mmol/L
same,LDL CHS,[4]; [12],3.90 ± 0.3 mmol/L
same,TG,[4]; [12],1.6 ± 0.10 mmol/L
same,Total CHS,[4]; [12],4.5 ± 0.5 mmol/L
"CC(C)c1nc(N(C)S(C)(=O)=O)nc(-c2ccc(F)cc2)c1/C=C/[C@@H](O)C[C@@H](O)CC(=O)O [RV, (3R,5S,6E)-7-[4-(4-fluorophenyl)-2-(N-methylmethanesulfonamido)-6-(propan-2-yl)pyrimidin-5-yl]-3,5-dihydroxyhept-6-enoic acid]",Body weight,"[5]; Day 0 (Before the study), dose group 20 mg",2874 ± 165 g
same,Body weight,"[5]; Day 0 (Before the study), dose group 40 mg",2787 ± 141 g
same,Body weight,"[5]; Day 28 (in the setting of pathology without treatment), dose group 20 mg",3350 ± 157 g
same,Body weight,"[5]; Day 28 (in the setting of pathology without treatment), dose group 40 mg",3428 ± 146 g
same,Body weight,"[5]; Day 90 (in the setting of pathology with treatment), dose 20 mg",4340 ± 53 g
same,Body weight,"[5]; Day 90 (in the setting of pathology with treatment), dose 40 mg",4348 ± 66 g
same,"Body weight, M ± SEM, Day 120 (in the setting of pathology with treatment)","[5]; Scheme B, dose 20 mg",4699 ± 131^1 g
same,"Body weight, M ± SEM, Day 0 (Before the study)","[5]; Scheme B, dose 20 mg, baseline",2665 ± 85 g
same,"Body weight, M ± SEM, Day 56 (in the setting of pathology without treatment)","[5]; Scheme B, dose 20 mg, before treatment",3479 ± 106 g
same,"weight coefficient, Pancreas",[1]; [13],0.35 ± 0.04
same,"weight coefficient, Kidneys",[1]; [13],0.75 ± 0.03
same,"weight coefficient, Liver",[1]; [13],4.42 ± 0.11
same,"Mass ratios, M ± SEM, Liver","[6]; Scheme A, dose 20 mg",3.8 ± 0.2
same,"Mass ratios, M ± SEM, Pancreas","[6]; Scheme A, dose 20 mg",0.07 ± 0.006
same,"Mass ratios, M ± SEM, Liver","[6]; Scheme A, dose 40 mg",4.0 ± 0.1
same,"Mass ratios, M ± SEM, Pancreas","[6]; Scheme A, dose 40 mg",0.09 ± 0.004
same,pancreatic mass coefficients relative to the control group,[6]; Scheme A,significant increase
same,"Mass ratios, M ± SEM, Liver","[6]; Scheme B, dose 20 mg",3.8 ± 0.2
same,"Mass ratios, M ± SEM, Pancreas","[6]; Scheme B, dose 20 mg",0.09 ± 0.004^12
same,pancreatic mass coefficients relative to the control group,[6]; Scheme B,statistically significant increase
same,ALT,[3]; [14],179 U/l
same,AST,[3]; [14],182 U/l
same,Amylase,[3]; [14],641 U/l
same,Bilirubin direct,[3]; [14],2.7 mg/dL
same,Bilirubin indirect,[3]; [14],2.1 mg/dL
same,Bilirubin total,[3]; [14],4.6 mg/dL
same,CPK,[3]; [14],702 U/l
same,Glucose,[3]; [14],158 mg/dL
same,Potassium,[3]; [14],4.3 mM
same,Sodium,[3]; [14],128 mmol
same,Urea,[3]; [14],7.2 mmol/L
same,ALT,[3]; [15],139 U/l
same,AST,[3]; [15],190 U/l
same,Amylase,[3]; [15],584 U/l
same,Bilirubin direct,[3]; [15],2.9 mg/dL
same,Bilirubin indirect,[3]; [15],1.7 mg/dL
same,Bilirubin total,[3]; [15],4.8 mg/dL
same,CPK,[3]; [15],597 U/l
same,Glucose,[3]; [15],130 mg/dL
same,Potassium,[3]; [15],2.2 mM
same,Sodium,[3]; [15],130 mmol
same,Urea,[3]; [15],6.4 mmol/L
same,HDL CHS,[4]; [14],0.81 ± 0.05 mmol/L
same,LDL CHS,[4]; [14],3.23 ± 0.21 mmol/L
same,TG,[4]; [14],1.21 ± 0.10 mmol/L
same,Total CHS,[4]; [14],4.0 ± 0.2 mmol/L
same,HDL CHS,[4]; [16],0.9 ± 0.03 mmol/L
same,LDL CHS,[4]; [16],3.00 ± 0.10 mmol/L
same,TG,[4]; [16],1.27 ± 0.03 mmol/L
same,Total CHS,[4]; [16],3.6 ± 0.1 mmol/L
same,HDL CHS,[4]; [17],0.81 ± 0.05 mmol/L
same,LDL CHS,[4]; [17],2.90 ± 0.21 mmol/L
same,TG,[4]; [17],1.21 ± 0.10 mmol/L
same,Total CHS,[4]; [17],3.7 ± 0.2 mmol/L
same,HDL CHS,[4]; [18],0.91 ± 0.03 mmol/L
same,LDL CHS,[4]; [18],2.72 ± 0.20 mmol/L
same,TG,[4]; [18],1.29 ± 0.03 mmol/L
same,Total CHS,[4]; [18],3.3 ± 0.1 mmol/L
